Where a SMILES comes first, the peptide text is derived from it.
Columns and labels:
[1] = target: Signal transducer and activator of transcription 3 (Homo sapiens, UniProt P40763); experiment: Inhibition of STAT3 (unknown origin)
Protease [2] = target: Protease (Human immunodeficiency virus 1, UniProt Q9YQ12, G48V); experiment: Inhibition of HIV-1 protease G48V mutant
Protease [3] = target: Protease (Human immunodeficiency virus 1, UniProt Q9YQ12, V82A); experiment: Inhibition of HIV-1 protease V82A mutant
Protease [4] = target: Protease (Human immunodeficiency virus 1, UniProt Q9YQ12); experiment: Inhibition of HIV-1 protease
Protease [5] = target: Protease (Human immunodeficiency virus 1, UniProt Q9YQ12, V82F); experiment: Inhibition of HIV-1 protease V82F mutant
Carbonic anhydrase = experiment: Inhibition of carbonic anhydrase (unknown origin); assay type: protein assay, Homo sapiens
[6] = target: Telomerase reverse transcriptase (Homo sapiens, UniProt O14746); experiment: Inhibition of telomerase activity in human A2780 cells incubated for 10 mins by SYBR Green 1 staining based TRAP assay; assay type: cell-based
Tyrosinase = target: T1, Tyrosinase (Agaricus bisporus, UniProt O42713); experiment: Inhibition of mushroom tyrosinase using L-DOPA as substrate
T1 sequence (O42713 whole entry): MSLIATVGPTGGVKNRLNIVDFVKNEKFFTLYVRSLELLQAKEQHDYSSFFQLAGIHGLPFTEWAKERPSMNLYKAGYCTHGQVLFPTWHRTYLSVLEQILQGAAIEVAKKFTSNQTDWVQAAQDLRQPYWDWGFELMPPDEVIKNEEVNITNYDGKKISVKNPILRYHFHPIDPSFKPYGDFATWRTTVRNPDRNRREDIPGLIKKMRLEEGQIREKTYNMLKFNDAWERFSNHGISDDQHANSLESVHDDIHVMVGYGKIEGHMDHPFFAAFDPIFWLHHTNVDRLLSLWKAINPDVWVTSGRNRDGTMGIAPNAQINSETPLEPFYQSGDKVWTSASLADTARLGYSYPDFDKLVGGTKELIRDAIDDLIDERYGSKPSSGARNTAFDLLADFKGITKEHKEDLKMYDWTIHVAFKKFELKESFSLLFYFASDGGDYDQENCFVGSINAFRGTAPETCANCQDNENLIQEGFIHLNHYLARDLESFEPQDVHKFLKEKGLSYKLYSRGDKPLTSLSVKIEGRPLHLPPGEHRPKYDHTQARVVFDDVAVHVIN

D-amino-acid oxidase = D-amino-acid oxidase (Homo sapiens, UniProt P14920); experiment: Inhibition of human DAO
Chain of D-amino-acid oxidase (P14920 whole entry): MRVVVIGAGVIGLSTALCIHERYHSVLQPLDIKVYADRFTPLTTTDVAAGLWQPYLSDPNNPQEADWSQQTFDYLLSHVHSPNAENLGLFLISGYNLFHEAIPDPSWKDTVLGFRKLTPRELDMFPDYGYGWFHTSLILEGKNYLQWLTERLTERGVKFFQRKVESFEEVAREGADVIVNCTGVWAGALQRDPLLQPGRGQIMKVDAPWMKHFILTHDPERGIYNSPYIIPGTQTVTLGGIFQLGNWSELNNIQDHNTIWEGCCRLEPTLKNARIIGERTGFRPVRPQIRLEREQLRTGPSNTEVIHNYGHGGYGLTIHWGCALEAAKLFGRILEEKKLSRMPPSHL

Chain of Telomerase reverse transcriptase (O14746 whole entry): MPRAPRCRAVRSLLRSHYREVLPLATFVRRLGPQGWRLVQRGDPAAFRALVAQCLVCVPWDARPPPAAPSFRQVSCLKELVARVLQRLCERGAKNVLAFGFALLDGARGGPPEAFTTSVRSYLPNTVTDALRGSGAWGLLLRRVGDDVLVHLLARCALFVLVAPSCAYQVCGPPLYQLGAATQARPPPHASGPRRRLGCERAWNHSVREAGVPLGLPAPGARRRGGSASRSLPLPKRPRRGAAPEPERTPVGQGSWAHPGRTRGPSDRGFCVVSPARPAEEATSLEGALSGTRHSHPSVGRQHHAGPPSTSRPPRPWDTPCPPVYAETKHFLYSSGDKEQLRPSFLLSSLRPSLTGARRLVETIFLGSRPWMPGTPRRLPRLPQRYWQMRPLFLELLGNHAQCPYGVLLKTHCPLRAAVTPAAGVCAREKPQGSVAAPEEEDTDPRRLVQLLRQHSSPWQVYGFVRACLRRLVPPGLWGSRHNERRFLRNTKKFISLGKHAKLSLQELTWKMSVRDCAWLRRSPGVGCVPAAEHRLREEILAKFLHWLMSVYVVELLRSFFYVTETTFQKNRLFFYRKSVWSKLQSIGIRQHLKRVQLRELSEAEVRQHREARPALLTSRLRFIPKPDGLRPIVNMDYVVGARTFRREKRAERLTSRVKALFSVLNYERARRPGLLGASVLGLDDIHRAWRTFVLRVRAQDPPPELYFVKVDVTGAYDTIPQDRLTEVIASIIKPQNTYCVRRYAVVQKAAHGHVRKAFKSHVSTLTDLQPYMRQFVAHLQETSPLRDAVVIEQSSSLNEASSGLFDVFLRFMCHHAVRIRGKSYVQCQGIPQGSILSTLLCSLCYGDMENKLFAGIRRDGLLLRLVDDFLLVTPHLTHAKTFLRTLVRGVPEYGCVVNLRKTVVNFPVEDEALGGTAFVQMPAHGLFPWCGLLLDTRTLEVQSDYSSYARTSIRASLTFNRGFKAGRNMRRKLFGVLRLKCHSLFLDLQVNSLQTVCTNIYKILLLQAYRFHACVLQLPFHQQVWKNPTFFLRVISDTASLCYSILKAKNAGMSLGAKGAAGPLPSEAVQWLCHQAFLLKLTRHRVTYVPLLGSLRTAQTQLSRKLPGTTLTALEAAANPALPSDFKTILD
Chain of Signal transducer and activator of transcription 3 (P40763 whole entry): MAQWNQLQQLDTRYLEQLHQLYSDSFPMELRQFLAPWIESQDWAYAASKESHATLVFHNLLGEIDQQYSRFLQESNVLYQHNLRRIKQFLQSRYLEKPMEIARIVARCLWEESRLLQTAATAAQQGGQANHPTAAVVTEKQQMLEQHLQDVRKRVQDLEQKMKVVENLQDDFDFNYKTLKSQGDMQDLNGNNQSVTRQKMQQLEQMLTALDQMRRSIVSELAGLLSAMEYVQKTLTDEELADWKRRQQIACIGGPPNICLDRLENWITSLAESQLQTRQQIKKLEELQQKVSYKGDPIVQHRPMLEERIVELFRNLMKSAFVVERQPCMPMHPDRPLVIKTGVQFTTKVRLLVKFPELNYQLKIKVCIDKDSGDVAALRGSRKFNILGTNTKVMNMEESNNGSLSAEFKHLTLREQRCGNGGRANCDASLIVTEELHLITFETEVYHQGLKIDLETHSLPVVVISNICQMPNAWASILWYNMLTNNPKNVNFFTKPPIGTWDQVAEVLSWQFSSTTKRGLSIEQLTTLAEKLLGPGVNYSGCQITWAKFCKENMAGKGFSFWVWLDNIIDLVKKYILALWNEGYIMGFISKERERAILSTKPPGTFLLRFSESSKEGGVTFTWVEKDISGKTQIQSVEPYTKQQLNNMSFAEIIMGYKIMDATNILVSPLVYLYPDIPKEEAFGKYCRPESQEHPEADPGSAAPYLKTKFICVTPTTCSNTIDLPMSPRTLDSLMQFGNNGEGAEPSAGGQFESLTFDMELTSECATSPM
Chain of Protease (Human immunodeficiency virus 1, UniProt Q9YQ12, V82A) (Q9YQ12 entry or part of it V82A): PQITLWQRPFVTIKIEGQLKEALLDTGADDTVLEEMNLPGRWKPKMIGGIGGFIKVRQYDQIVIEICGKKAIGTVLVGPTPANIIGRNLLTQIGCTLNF
Chain of Protease (Human immunodeficiency virus 1, UniProt Q9YQ12, G48V) (Q9YQ12 entry or part of it G48V): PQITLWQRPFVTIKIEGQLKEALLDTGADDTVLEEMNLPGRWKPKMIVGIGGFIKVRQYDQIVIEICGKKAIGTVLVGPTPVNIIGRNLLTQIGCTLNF
Chain of Protease (Human immunodeficiency virus 1, UniProt Q9YQ12, V82F) (Q9YQ12 entry or part of it V82F): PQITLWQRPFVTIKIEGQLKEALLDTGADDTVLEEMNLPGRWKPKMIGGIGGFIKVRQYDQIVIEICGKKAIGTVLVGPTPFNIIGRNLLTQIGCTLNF
Chain of Protease (Human immunodeficiency virus 1, UniProt Q9YQ12) (Q9YQ12 whole entry): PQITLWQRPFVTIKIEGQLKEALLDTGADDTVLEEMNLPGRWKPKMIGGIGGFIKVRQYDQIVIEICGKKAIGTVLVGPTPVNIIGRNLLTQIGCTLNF

In the case of `COC(=O)[C@H](CCCCN)NC(=O)[C@@H](NC(=O)[C@@H](CCCCN)NC(=O)[C@@H](NC(=O)[C@@H](Cc1ccc(OP(=O)(O)O)cc1)NC(C)=O)C(C)C)[C@@H](C)O`, the Ki [1] is reported as 21.9 µM.
With `COc1ccc(S(=O)(=O)N(CC(C)C)C[C@H](O)[C@@H](Cc2ccccc2)n2cc(COC(=O)N[C@H]3c4ccccc4C[C@H]3O)nn2)cc1` the Ki (Protease [2]) was 0.0017 µM, the Ki (Protease [3]) was 0.0017 µM and the Ki (Protease [4]) was 0.0017 µM. It also gave a Ki (Protease [5]) of 0.0017 µM.
In the case of `CC(C)[C@H](C(=O)NCc1ccccc1)n1cc(-c2ccc(S(N)(=O)=O)cc2)nn1`, the Ki (Carbonic anhydrase) is reported as 0.0002 µM.
`CCN(CC)CCC(=O)Nc1ccc(-n2cc(-c3cccc(-c4cn(-c5ccc(NC(=O)CCN(CC)CC)cc5)nn4)c3)nn2)cc1` gave an EC50 [6] of 23.5 µM.
For `CC(C)[C@H]1C(=O)N2CCC[C@H]2c2cn(nn2)[C@@H](Cc2ccc(OCc3ccccc3)cc2)C(=O)N2CCC[C@H]2c2cn1nn2`, the IC50 (Tyrosinase) was 1600 µM.
Work on `CC(C)[C@@H]1NC(=O)[C@@H]2CCCN2C(=O)[C@H](Cc2ccc(OCc3ccccc3)cc2)n2cc(nn2)[C@@H]2CCCN2C1=O` yielded an IC50 (Tyrosinase) of 500 µM.
In the case of `O=C(CCN1CCCC1)Nc1ccc(-n2cc(-c3cccc(-c4cn(-c5ccc(NC(=O)CCN6CCCC6)cc5)nn4)c3)nn2)cc1`, the EC50 [6] is reported as 13.3 µM.
`O=C(CCN1CCCCC1)Nc1ccc(-n2cc(-c3cccc(-c4cn(-c5ccc(NC(=O)CCN6CCCCC6)cc5)nn4)c3)nn2)cc1` gave an EC50 [6] of 17.1 µM.
For `COC(=O)/C(Cc1ccc(O)cc1)=N\OCCc1cn(CC(=O)NC(Cc2ccccc2)C(=O)O)nn1` (stereo not given), the Ki (D-amino-acid oxidase) was 1000 µM.
With `NS(=O)(=O)c1ccc(-c2cn([C@H](Cc3ccccc3)C(=O)NCCc3ccsc3)nn2)cc1` the Ki (Carbonic anhydrase) was 0.0002 µM.
`CC(=O)N[C@H](Cc1ccc(OP(=O)(O)O)cc1)C(=O)N[C@@H](C(=O)N[C@@H]1CCCCn2cc(nn2)C[C@H](C(=O)N[C@@H](Cc2ccccc2)C(N)=O)NC(=O)[C@H]([C@@H](C)O)NC1=O)C(C)C` gave a Ki [1] of 7.3 µM.
`CC(C)[C@@H]1NC(=O)[C@@H]2CCCN2C(=O)[C@H](Cc2ccc(O)cc2)NC(=O)[C@@H]2CCCN2C1=O` (cyclo(PVPY)) was tested, and the IC50 (Tyrosinase) was 1500 µM.
